In ChEMBL document CHEMBL5096235, “In Silico Exploration and Biological Evaluation of Bispecific Peptides Derived from Anti-HER2 Antibodies and Peptide-Camptothecin Conjugates for HER2-Positive Breast Cancer” (J Med Chem, 2022):

Assays:
SK-BR-3 [1] = experiment: Induction of apoptosis in human SK-BR-3 cells assessed as late apoptotic cells incubated for 24 hrs by Annexin V-FITC/PI staining based flow cytometry analysis (Rvb= 5.02%); format: functional
[2] = Toxicity in nude mouse xenografted with human SK-BR-3 cells assessed as kidney damage at 8 micromol/kg, iv administered every 3 days for 14 days by H and E staining based analysis; format: organism-based; conditions: in vivo, 336 h, dose 8 µmol/kg, time 14 day
SK-OV-3 = experiment: Cytotoxicity against HER-positive human SK-OV-3 cells assessed as inhibition of cell growth incubated for 48 hrs by MTT assay; format: functional, cell-based; conditions: SK-OV-3, 48 h
[3] = Toxicity in nude mouse xenografted with human SK-BR-3 cells assessed as effect on globulin level at 8 micromol/kg, iv administered every 3 days for 14 days; format: organism-based; conditions: in vivo, 336 h, dose 8 µmol/kg, time 14 day
[4] = Toxicity in nude mouse xenografted with human SK-BR-3 cells assessed as effect on creatinine level at 8 micromol/kg, iv administered every 3 days for 14 days; format: organism-based; conditions: in vivo, 336 h, dose 8 µmol/kg, time 14 day
[5] = Toxicity in nude mouse xenografted with human SK-BR-3 cells assessed as effect on total protein level at 8 micromol/kg, iv administered every 3 days for 14 days; format: organism-based; conditions: in vivo, 336 h, dose 8 µmol/kg, time 14 day
[6] = Toxicity in nude mouse xenografted with human SK-BR-3 cells assessed as lung damage at 8 micromol/kg, iv administered every 3 days for 14 days by H and E staining based analysis; format: organism-based; conditions: in vivo, 336 h, dose 8 µmol/kg, time 14 day
[7] = Toxicity in nude mouse xenografted with human SK-BR-3 cells assessed as liver damage at 8 micromol/kg, iv administered every 3 days for 14 days by H and E staining based analysis; format: organism-based; conditions: in vivo, 336 h, dose 8 µmol/kg, time 14 day
[8] = Toxicity in nude mouse xenografted with human SK-BR-3 cells assessed as heart damage at 8 micromol/kg, iv administered every 3 days for 14 days by H and E staining based analysis; format: organism-based; conditions: in vivo, 336 h, dose 8 µmol/kg, time 14 day
[9] = Toxicity in nude mouse xenografted with human SK-BR-3 cells assessed as inflammatory cell infiltration at 8 micromol/kg, iv administered every 3 days for 14 days by H and E staining based analysis; format: organism-based; conditions: in vivo, 336 h, dose 8 µmol/kg, time 14 day
MDA-MB-231 = experiment: Cytotoxicity against HER-negative human MDA-MB-231 cells assessed as inhibition of cell growth incubated for 48 hrs by MTT assay; format: functional, cell-based; conditions: MDA-MB-231, 48 h
[10] = Toxicity in nude mouse xenografted with human SK-BR-3 cells assessed as effect on alkaline phosphatase level at 8 micromol/kg, iv administered every 3 days for 14 days; format: organism-based; conditions: in vivo, 336 h, dose 8 µmol/kg, time 14 day
SK-BR-3 [11] = experiment: Induction of cell cycle arrest in human SK-BR-3 cells assessed as accumulation of cells at S phase incubated for 24 hrs by flow cytometry analysis (reference value: 23%); format: functional
[12] = Toxicity in nude mouse xenografted with human SK-BR-3 cells assessed as spleen damage at 8 micromol/kg, iv administered every 3 days for 14 days by H and E staining based analysis; format: organism-based; conditions: in vivo, 336 h, dose 8 µmol/kg, time 14 day
SK-BR-3 [13] = experiment: Induction of apoptosis in human SK-BR-3 cells assessed as live cells incubated for 24 hrs by Annexin V-FITC/PI staining based flow cytometry analysis (Rvb= 89.4%); format: functional
SK-BR-3 [14] = experiment: Cytotoxicity against HER-positive human SK-BR-3 cells assessed as inhibition of cell growth incubated for 48 hrs by MTT assay; format: functional, cell-based; conditions: SK-BR-3, 48 h
[15] = Cytotoxicity against human MCF-10A cells assessed as inhibition of cell growth incubated for 48 hrs by MTT assay; format: toxicity, cell-based
SK-BR-3 [16] = experiment: Induction of apoptosis in human SK-BR-3 cells assessed as dead cells incubated for 24 hrs by Annexin V-FITC/PI staining based flow cytometry analysis (Rvb= 1.21%); format: functional
[17] = Toxicity in nude mouse xenografted with human SK-BR-3 cells assessed as cellular necrosis at 8 micromol/kg, iv administered every 3 days for 14 days by H and E staining based analysis; format: organism-based; conditions: in vivo, 336 h, dose 8 µmol/kg, time 14 day
NCI-N87 = experiment: Cytotoxicity against HER-positive human NCI-N87 cells assessed as inhibition of cell growth incubated for 48 hrs by MTT assay; format: functional, cell-based; conditions: NCI-N87, 48 h
SK-BR-3 [18] = experiment: Induction of apoptosis in human SK-BR-3 cells assessed as early apoptotic cells incubated for 24 hrs by Annexin V-FITC/PI staining based flow cytometry analysis (Rvb= 4.37%); format: functional
[19] = Toxicity in nude mouse xenografted with human SK-BR-3 cells assessed as effect on albumin level at 8 micromol/kg, iv administered every 3 days for 14 days; format: organism-based; conditions: in vivo, 336 h, dose 8 µmol/kg, time 14 day

CC[C@@]1(O)C(=O)OCc2c1cc1n(c2=O)Cc2cc3ccccc3nc2-1 [CAMPTOTHECIN]
Activity (SK-BR-3 [1]): 12.3%
Activity [2]: Non-Toxic
IC50 (SK-OV-3): 3820 nM
Activity [3]: Non-Toxic
Activity [4]: Non-Toxic
Activity [5]: Non-Toxic
Activity [6]: Non-Toxic
Activity [7]: Non-Toxic
Activity [8]: Non-Toxic
Activity [9]: Non-Toxic
IC50 (MDA-MB-231): 1060 nM
Activity [10]: Non-Toxic
Activity (SK-BR-3 [11]): 50.8%
Activity [12]: Non-Toxic
Activity (SK-BR-3 [13]): 48.8%
IC50 (SK-BR-3 [14]): 210 nM
IC50 at 48 h [15]: 2580 nM
Activity (SK-BR-3 [16]): 0.35%
Activity [17]: Non-Toxic
IC50 (NCI-N87): 2320 nM
Activity (SK-BR-3 [18]): 38.6%
Activity [19]: Non-Toxic
